# Data reported in the supplement of paper PMC4862054.
# Assays:
# Conditions in all cases: 72 h
# HCC1937 [1] = tested on: HCC1937
# Experimental: (§1)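 Drug sensitivity and resistance testing (DSRT) of breast cancer cell lines in 384-well plates, 5 concentrations in 10-fold dilutions over a compound-specific 10,000-fold range. After 72 h, cytotoxicity was read by CellTox Green fluorescence and viability by CellTiter-Glo luminescence (multiplexed), normalised to DMSO and benzethonium chloride controls. EC50 is the inflection point of the fitted dose-response curve (bottom asymptote free, so it can be relative for partial curves) and is censored at the highest tested concentration. Rows with DSS 0 (no meaningful response) were excluded.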
# BT-474 [2] = tested on: BT-474
# Experimental: as §1
# MFM-223 [3] = tested on: MFM-223
# Summary of the method: (§2)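 Per-plate normalisation used 0.1 % DMSO and a positive kill control. Breast cancer cell lines (20 µl suspension) were seeded into 384-well plates containing compound at 5 concentrations in 10-fold steps across a compound-specific 10,000-fold range, incubated for 72 h, and read first for CellTox Green fluorescence (485/520 nm), then for CellTiter-Glo luminescence. EC50 was fitted from the dose-response curves and censored at the top concentration.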
# HCC1937 [4] = tested on: HCC1937; remark: listed apart in the source
# Summary of the method: as §2
# BT-474 [5] = tested on: BT-474; remark: listed apart in the source
# Summary of the method: as §2
# MCF-10A [6] = tested on: MCF-10A
# Summary of the method: as §2
# Hs578T [7] = tested on: Hs578T
# Experimental: as §1
# MDA-MB-468 = tested on: MDA-MB-468
# Experimental: as §1
# CAL-51 [8] = tested on: CAL-51
# Experimental: as §1
# MFM-223 [9] = tested on: MFM-223; remark: listed apart in the source
# Experimental: as §1
# CAL-85-1 [10] = tested on: CAL-85-1
# Experimental: as §1
# MDA-MB-231 [11] = tested on: MDA-MB-231
# Experimental: as §1
# HCC1143 [12] = tested on: HCC1143
# Summary of the method: (§3)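 For viability, cells received 2.5 µl CellTiter-Blue for 2 h at 37 °C and fluorescence was read at 560/590 nm. Before this, breast cancer cell lines in 20 µl suspension had been incubated for 72 h on 384-well plates pre-loaded with compound dissolved in 5 µl medium. EC50 was obtained from a percent-inhibition dose-response fit censored at the highest concentration, after normalisation of each plate to vehicle and a positive kill control; rows with a zero drug sensitivity score were discarded.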
# Hs578T [13] = tested on: Hs578T; remark: listed apart in the source
# Summary of the method: as §2
# HDQ-P1 [14] = tested on: HDQ-P1
# Summary of the method: as §2
# HCC1599 [15] = tested on: HCC1599
# Summary of the method: as §2
# MDA-MB-436 [16] = tested on: MDA-MB-436
# Summary of the method: as §2
# HCC1143 [17] = tested on: HCC1143; remark: listed apart in the source
# Summary of the method: as §2
# CAL-51 [18] = tested on: CAL-51; remark: listed apart in the source
# Summary of the method: as §2
# CAL-85-1 [19] = tested on: CAL-85-1; remark: listed apart in the source
# Summary of the method: as §2
# BT-549 [20] = tested on: BT-549
# Summary of the method: as §2
# DU-4475 [21] = tested on: DU-4475
# Summary of the method: as §2
# CAL-120 [22] = tested on: CAL-120
# Summary of the method: as §2
# MDA-MB-231 [23] = tested on: MDA-MB-231; remark: listed apart in the source
# Summary of the method: as §2
# SK-BR-3 = tested on: SK-BR-3
# Summary of the method: as §2
# MDA-MB-453 [24] = tested on: MDA-MB-453
# Summary of the method: as §2
# CAL-148 [25] = tested on: CAL-148
# Summary of the method: as §3
# HDQ-P1 [26] = tested on: HDQ-P1; remark: listed apart in the source
# Experimental: as §1
# HCC1599 [27] = tested on: HCC1599; remark: listed apart in the source
# Experimental: as §1
# HCC1143 [28] = tested on: HCC1143; remark: listed apart in the source
# Experimental: as §1
# CAL-148 [29] = tested on: CAL-148; remark: listed apart in the source
# Experimental: as §1
# DU-4475 [30] = tested on: DU-4475; remark: listed apart in the source
# Experimental: as §1
# CAL-120 [31] = tested on: CAL-120; remark: listed apart in the source
# Experimental: as §1
# MCF-10A [32] = tested on: MCF-10A; remark: listed apart in the source
# Experimental: as §1
# MDA-MB-453 [33] = tested on: MDA-MB-453; remark: listed apart in the source
# Experimental: as §1
# HCC1599 [34] = tested on: HCC1599; remark: listed apart in the source
# Summary of the method: as §3
# CAL-148 [35] = tested on: CAL-148; remark: listed apart in the source
# Summary of the method: as §2
# MDA-MB-436 [36] = tested on: MDA-MB-436; remark: listed apart in the source
# Experimental: as §1
# BT-549 [37] = tested on: BT-549; remark: listed apart in the source
# Experimental: as §1
SMILES,"EC50, CellTox Green (HCC1937 [1]) [µM]","EC50, CellTox Green (BT-474 [2]) [µM]","EC50, CellTiter-Glo (MFM-223 [3]) [µM]","EC50, CellTiter-Glo (HCC1937 [4]) [µM]","EC50, CellTiter-Glo (BT-474 [5]) [µM]","EC50, CellTiter-Glo (MCF-10A [6]) [µM]","EC50, CellTox Green (Hs578T [7]) [µM]","EC50, CellTox Green (MDA-MB-468) [µM]","EC50, CellTox Green (CAL-51 [8]) [µM]","EC50, CellTox Green (MFM-223 [9]) [µM]","EC50, CellTox Green (CAL-85-1 [10]) [µM]","EC50, CellTox Green (MDA-MB-231 [11]) [µM]","EC50, CellTiter-Blue viability (HCC1143 [12]) [µM]","EC50, CellTiter-Glo (Hs578T [13]) [µM]","EC50, CellTiter-Glo (HDQ-P1 [14]) [µM]","EC50, CellTiter-Glo (HCC1599 [15]) [µM]","EC50, CellTiter-Glo (MDA-MB-436 [16]) [µM]","EC50, CellTiter-Glo (HCC1143 [17]) [µM]","EC50, CellTiter-Glo (CAL-51 [18]) [µM]","EC50, CellTiter-Glo (CAL-85-1 [19]) [µM]","EC50, CellTiter-Glo (BT-549 [20]) [µM]","EC50, CellTiter-Glo (DU-4475 [21]) [µM]","EC50, CellTiter-Glo (CAL-120 [22]) [µM]","EC50, CellTiter-Glo (MDA-MB-231 [23]) [µM]","EC50, CellTiter-Glo (SK-BR-3) [µM]","EC50, CellTiter-Glo (MDA-MB-453 [24]) [µM]","EC50, CellTiter-Blue viability (CAL-148 [25]) [µM]","EC50, CellTox Green (HDQ-P1 [26]) [µM]","EC50, CellTox Green (HCC1599 [27]) [µM]","EC50, CellTox Green (HCC1143 [28]) [µM]","EC50, CellTox Green (CAL-148 [29]) [µM]","EC50, CellTox Green (DU-4475 [30]) [µM]","EC50, CellTox Green (CAL-120 [31]) [µM]","EC50, CellTox Green (MCF-10A [32]) [µM]","EC50, CellTox Green (MDA-MB-453 [33]) [µM]","EC50, CellTiter-Blue viability (HCC1599 [34]) [µM]","EC50, CellTiter-Glo (CAL-148 [35]) [µM]","EC50, CellTox Green (MDA-MB-436 [36]) [µM]","EC50, CellTox Green (BT-549 [37]) [µM]"
CN(C)CCOc1ccc(/C(=C(/CCCl)c2ccccc2)c2ccccc2)cc1 [Toremifene],3.45,6.16,7.34,9.75,3.62,1.71,,,,,,,,,,,,,,,,,,,,,,,,,,,,,,,,,
O=C(Nc1ccncc1)C(=O)c1cn(Cc2ccc(Cl)cc2)c2ccccc12 [Indibulin],,,0.28,0.245,0.282,,3.45,1.64,0.86,0.395,0.858,0.472,0.0469,0.482,0.523,0.129,0.203,0.754,0.165,0.169,0.185,3.81,0.408,1.04,0.355,0.164,5,,,,,,,,,,,,
Cc1[nH]c2ccccc2c1CCNCc1ccc(/C=C/C(=O)NO)cc1 [Panobinostat],0.071,0.0278,0.0276,0.168,0.0318,0.0891,0.0286,0.133,0.0308,0.182,0.0332,0.0216,0.0274,0.0432,0.115,0.0464,0.0582,0.0335,0.0226,0.0334,0.0813,0.0183,0.0623,0.0243,0.0137,0.00995,0.0129,0.193,0.112,0.0717,0.0186,0.0203,0.0684,0.579,0.043,0.0241,0.021,,
COc1cc(O)c2c(c1)/C=C/C[C@H](O)[C@H](O)C(=O)/C=C\C[C@H](C)OC2=O [(5Z)-7-Oxozeaenol],0.305,4.93,2.17,4.06,2.16,0.532,0.253,,9.35,0.277,0.0665,0.864,,3.25,2.33,5.83,1.56,7.82,3.77,0.605,0.548,0.173,2.45,1.43,6.39,8.35,,,,,0.0758,0.759,,,,,1.47,,
COC(=O)c1ccc2c(c1)NC(=O)/C2=C(\Nc1ccc(N(C)C(=O)CN2CCN(C)CC2)cc1)c1ccccc1 [Nintedanib],1.65,2.54,0.408,4.83,3.55,0.584,,5.88,2.95,,,2.19,,,1.08,,5.34,4.78,1.88,,1.91,,2.38,2.58,,3.11,,,,,,,,7.35,,,,8.83,6.88
CNC(=O)c1cc(Oc2ccc(NC(=O)Nc3ccc(Cl)c(C(F)(F)F)c3)c(F)c2)ccn1 [Regorafenib],4.88,,1.15,> 10,3.5,1.88,,,,,,,0.00384,2.29,5.11,8.02,6.38,,0.216,,9.05,2.97,9.95,4.56,> 10,2.89,,,,,,,,,,7.36,4.59,,
CCOC(=O)CCNc1cc(N2CCc3ccccc3CC2)nc(-c2ccccn2)n1 [GSK-J4],24.1,2.59,7.94,8.34,9.14,9.27,2.28,8.14,9.96,17.4,4.08,11.3,,12.2,11.7,9.37,4.33,8.69,1.34,5.18,1,7.17,12.1,6.15,11.6,2.96,,9.77,5.44,0.321,10.9,5.92,20,18.1,22.6,,3.44,21.2,17.8
N#Cc1ccc(COC[C@H]2O[C@@H](n3c(NCc4ccc(Cl)c(Cl)c4)nc4c(N)ncnc43)[C@H](O)[C@@H]2O)cc1,,,4.53,> 10,0.857,2.65,,,,1,,,,1.74,3.55,,,2.64,,,1.52,1.17,,,2.58,,,,,,,,,,,1.35,,,
c1ccc2c(CCNc3ccc(Nc4ccncc4)cc3)c[nH]c2c1 [Serdemetan],,,> 10,> 10,4.65,,,,0.285,7.78,,8.8,,9.71,1.23,5.24,8.14,,0.315,8.46,1.73,2.37,,6.23,2.78,8.86,4.53,,,,2.31,1.81,,,,1.61,2.49,,
